Each structure is given as a SMILES string. Some results are limits rather than exact numbers.

We go through 1 molecule from paper PMC3726599, “A Metabolically-Stabilized Phosphonate Analog of Lysophosphatidic Acid Attenuates Collagen-Induced Arthritis” (PLoS ONE, 2013).

The target in one test is T1, plasma ATX/LysoPLD (Mus musculus, UniProt Q9R1E6).
T1 construct: from tissue; host or cells: mouse plasma / whole blood
Briefly: Plasma ATX/lysoPLD activity ex vivo (TOOS assay, exogenous LPC). Format: biochemical. The settings on record: for IC50: TOOS. The method, then: ATX/LysoPLD activity was assessed based on the amount of choline released from LPC with the use of TOOS (N-ethyl-N-(2-hydoroxy-3-sulfopropyl)-3-methylaniline) reagent. In this assay ATX-mediated LPC-liberated choline is oxidised by choline oxidase to betaine and hydrogen peroxide (H2O2). The latter in the presence of horseradish peroxidase reacts with TOOS and 4-aminoantipyrene (4-AAP) to form a pink quinoneimine dye measured at 555 nm.
Diluted plasma samples (100 fold dilution; final EDTA concentration 0.5 mM) or recombinant ATX protein (2 nM) were incubated with LPC in the presence of 100 mmol/l Tris–HCl/pH 9.0, 500 mmol/l NaCl, 5 mmol/l MgCl2, 5 mmol/l CaCl2, 60 μM CoCl2 and 0.05% Triton X-100 for 3 h at 37°C at a final volume of 100 μl. It should be noted that EDTA was used not only as an anticoagulant but also as an inhibitor of ATX activity ex vivo [46], in order to suppress artificial LPA production during blood withdrawal and plasma preparation; this is because the same samples were used in phospholipid measurements.
The liberated choline was detected by adding 100 μl of a color mix containing 4-AAP and TOOS (0.3 mM), horseradish peroxidase (5.3 UnitmL^−1) and choline oxidase (2 UnitmL^−1). Absorbance was measured at 555 nm and data were analyzed using the statistical software package Prism 4.0 (Graphpad Software Inc, La Jolla, CA, USA). For each sample and control the absorbance was plotted against time and the slope (da/min) for the linear (steady-state) portion of each reaction profile was calculated. Absorbance units were converted to nmol of choline/min/ml by comparison with a choline standard curve or by use of the extinction coefficient for the quinoneimine dye according to the following equation: [drawing 1] Where Vt* is the total volume of reaction in ml (0.2 ml); Vs* is the volume of sample in ml; e is the millimolar extinction coefficient of quinoneimine dye under the assay conditions (e = e = […]); and 1/2: Factor based on the fact that 1 mol of hydrogen peroxide produces 1/2 mol of quinoneimine dye.
For in vitro inhibition measurements, BrP-LPA was dissolved in water as a stock solution (4 mM) and appropriate dilutions were made in water. The inhibition of ATX by BrP-LPA was measured employing 2 nM recombinant ATX, 50 μΜ LPC (14:0, 16:0, 18:0) and 0.01 to 100 μmol/L of BrP-LPA (final concentrations). The in vitro inhibition of ATX by BrP-LPA was evaluated with three different assays (FS-3, Amplex Red, and TOOS). […] BrP-LPA was also tested for its ability to inhibit mouse plasma ATX activity. Diluted mouse plasma was used as the source of ATX and the analysis of inhibition was made with TOOS as the in vitro inhibition assay.
The inhibition model (competitive, noncompetitive, or mixed type inhibition) was evaluated by graphical analysis with Lineweaver–Burk double reciprocal plots (1/[velocity] versus 1/[substrate]) and Cornish-Bowden plot ([substrate]/[velocity] versus [Inhibitor]). These plots were generated by the measurement of ATX activity in the presence of different BrP-LPA concentrations (0–10 μΜ) and increased amounts of 16:0 LPC (100, 200, 400 μΜ). The inhibition constants (Ki) and IC50 values were determined using the mean values obtained from two independent experiments. The relative remaining ATX activity or LPA levels in the presence of the BrP-LPA was expressed as a percentage of the corresponding control value (ATX activity, LPA levels without inhibitor). The IC50 value was determined graphically by plotting the log concentration of BrP-LPA versus relative remaining ATX activity or LPA levels of each test sample using the sigmoid dose–response fitting method (Prism® software). The IC50 (concentration of BrP-LPA sufficient to inhibit ATX activity or diminish LPA levels by 50%) was calculated by the equation f = y0+a/(1+exp(-(x-x0)/b)) given by SigmaPlot 11.0 (Systat Software, Inc., San Jose, CA, USA).

Test [1] has as its system transformed NIH3T3 cells expressing ras and ATX. Further details: method as in PMID 18454946. As to conditions: cited from earlier work.

With `CCCCCCCCCCCCCCCC(=O)OC[C@@H](O)CC(Br)P(=O)(O)O` (stereo partly drawn) [BrP-LPA, 1-bromo-3(S)-hydroxy-4-(palmitoyloxy)butyl-phosphonate], the figures for the “% Inhibition at 10 μΜ” value on plasma ATX/LysoPLD (14:0 LPC 50 μΜ), on plasma ATX/LysoPLD (16:0 LPC 50 μΜ) and at plasma ATX/LysoPLD (18:0 LPC 50 μΜ) were 28%, 58% and 70%, respectively. The figures for the IC50 on plasma ATX/LysoPLD (exogenous 14:0 LPC 50 μΜ), on plasma ATX/LysoPLD (exogenous 16:0 LPC 50 μΜ) and against plasma ATX/LysoPLD (exogenous 18:0 LPC 50 μΜ) were > 10 µM, 2.9 ± 0.3 µM and < 0.1 µM, respectively. Moreover, the decrease of chemotaxis in test [1] is reported as 23%.

Usually % Inhibition stands for the drop in the measured response relative to a control, in per cent. Lower therefore signals little suppression. In general, IC50 refers to the midpoint of a concentration-inhibition curve. High values mean lower potency, low ones higher potency.
